Tests used:
giant foxtail = assay: Test A pre-/postemergence herbicide test; format: in vivo, Setaria faberii
How it was run: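 Visual injury ratings, 0 = no effect, 100 = complete control, taken ~10 days after treatment against untreated greenhouse controls. Preemergence: directed soil spray onto seeded loam/sand pots. Postemergence: spray onto plants at one- to two-leaf stage, 2–10 cm tall.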

barnyardgrass = assay: Test B flooded paddy test; format: in vivo, Echinochloa crus-galli; conditions: Flood, scale of 0 to 100 where 0 is no effect and 100 is complete control
How it was run: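 Plants grown to 2-leaf stage; pots flooded 3 cm above soil and compound applied directly into paddy water, depth held throughout. Visual rating against untreated controls after 13 to 15 days in greenhouse, 0 (no effect) to 100 (complete control).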

pigweed = assay: Test C pre-/postemergence herbicide test; format: in vivo, Amaranthus retroflexus
How it was run: (§1)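 Pre- and postemergence greenhouse screen. Preemergence treatment went onto freshly planted seeds in loam–sand soil; postemergence treatment went onto plants 2 to 18 cm tall at the 1- to 4-leaf stage in sphagnum peat/vermiculite medium. Scoring at 13 to 15 days used a 0–100 control scale.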

foxtail, giant = assay: Test C pre-/postemergence herbicide test; format: in vivo, Setaria faberii
How it was run: as §1

corn = assay: Test C pre-/postemergence herbicide test; format: in vivo, Zea mays
How it was run: as §1

velvetleaf = assay: Test C pre-/postemergence herbicide test; format: in vivo, Abutilon theophrasti
How it was run: as §1

crabgrass, large = assay: Test C pre-/postemergence herbicide test; format: in vivo, Digitaria sanguinalis
How it was run: as §1

ducksalad = assay: Test C flooded paddy test; format: in vivo, Heteranthera limosa; conditions: Flood
How it was run: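 Plants grown to the 2-leaf stage; pots flooded to 3 cm above soil and compound applied directly into the paddy water, depth kept throughout. Greenhouse 13 to 15 days, then visual rating vs untreated controls on 0–100 scale (0 no effect, 100 complete control); dash means no result.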

[1] = Postemergence, 125 g ai/ha, 0 to 100 scale, 0 no effect, 100 complete control
[2] = preemergence, 500 g ai/ha, 0 to 100 scale
[3] = Preemergence, 31 g ai/ha, scale 0 to 100, 0 is no effect and 100 is complete control
[4] = Preemergence, 62 g ai/ha, scale 0 to 100
[5] = Preemergence, 125 g ai/ha, scale 0 to 100 (0 no effect, 100 complete control)
[6] = 125 g ai/ha, visual rating, 0 to 100 scale, 0 no effect, 100 complete control, approximately 10 days, preemergence
[7] = Postemergence, 31 g ai/ha, scale 0 to 100 (0 no effect, 100 complete control)
[8] = Postemergence, 62 g ai/ha, scale 0 (no effect) to 100 (complete control)
[9] = Postemergence, 125 g ai/ha, scale 0 to 100 (0 no effect, 100 complete control)
[10] = Postemergence, 250 g ai/ha, scale 0 to 100 (0 no effect, 100 complete control)
[11] = 125 g ai/ha, scale of 0 to 100 where 0 is no effect and 100 is complete control, 13 to 15 days
[12] = Preemergence, 62 g ai/ha, scale 0 to 100 (0 no effect, 100 complete control)

O=C1NCC(c2ccc(F)c(C(F)(F)F)c2)C1C(=O)Nc1cccc(F)c1F (racemic) [Compound 77]
Plant response rating, Foxtail, Giant (giant foxtail; [1]): 80 | Plant response rating, Foxtail, Giant (giant foxtail; Postemergence, 500 g ai/ha, 0 to 100 scale (0 no effect, 100 complete control)): 80 | Foxtail, Giant plant response rating (giant foxtail; Preemergence, 125 g ai/ha, visual rating on 0 to 100 scale (0 no effect, 100 complete control)): 90 | Plant response rating, Foxtail, Giant (giant foxtail; [2]): 90 | Plant response rating, Barnyardgrass (barnyardgrass; 250 g ai/ha): 20 | Pigweed plant response rating (pigweed; [3]): 0 | Plant response rating, Pigweed (pigweed; [4]): 60 | Plant response rating, Pigweed (pigweed; [5]): 60 | Plant response rating (scale of 0 to 100), Pigweed (pigweed; Preemergence, 250 g ai/ha): 85 | Foxtail, Giant plant response rating (foxtail, giant; [3]): 90 | Plant response rating, Foxtail, Giant (foxtail, giant; [4]): 90 | Plant response rating, Foxtail, Giant (foxtail, giant; [5]): 95 | Plant response rating (scale of 0 to 100), Foxtail, Giant (foxtail, giant; Preemergence, 250 g ai/ha): 100 | Corn plant response rating (corn; [3]): 0 | Plant response rating, Corn (corn; [4]): 20 | Plant response rating, Corn (corn; [5]): 55 | Plant response rating (scale of 0 to 100), Corn (corn; Preemergence, 250 g ai/ha): 70 | Velvetleaf plant response rating (velvetleaf; [3]): 0 | Plant response rating, Velvetleaf (velvetleaf; [4]): 25 | Plant response rating, Velvetleaf (velvetleaf; [5]): 30 | Plant response rating (scale of 0 to 100), Velvetleaf (velvetleaf; Preemergence, 250 g ai/ha): 40 | Crabgrass, Large plant response rating (crabgrass, large; [3]): 95 | Plant response rating, Crabgrass, Large (crabgrass, large; [4]): 95 | Plant response rating, Crabgrass, Large (crabgrass, large; [5]): 98 | Plant response rating (scale of 0 to 100), Crabgrass, Large (crabgrass, large; Preemergence, 250 g ai/ha): 98 | Plant response rating, Ducksalad (ducksalad; 250 g ai/ha, scale 0 to 100): 95 | Plant response rating, Ducksalad (ducksalad; 500 g ai/ha, scale 0 to 100): 100 | Plant response rating, Ducksalad (ducksalad; 1000 g ai/ha, scale 0 to 100): 100 | Plant response rating, Ducksalad (ducksalad; 2000 g ai/ha, scale 0 to 100): 100

O=C1NCC(c2ccc(F)cc2)C1C(=O)Nc1ccc(F)c(F)c1F (racemic) [Compound 120]
Plant response rating, Foxtail, Giant (giant foxtail; [6]): 90 | Plant response rating, Foxtail, Giant (giant foxtail; [1]): 80 | Foxtail, Giant plant response rating (0 to 100 scale, 0 is no effect, 100 is complete control) (giant foxtail; Postemergence, 500 g ai/ha): 90 | Plant response rating, Foxtail, Giant (giant foxtail; [2]): 90 | Plant response rating, Barnyardgrass (barnyardgrass; 500 g ai/ha): 80 | Plant response rating, Pigweed (pigweed; [7]): 5 | Plant response rating, Pigweed (pigweed; [8]): 20 | Plant response rating, Pigweed (pigweed; [9]): 40 | Plant response rating, Pigweed (pigweed; [10]): 60 | Pigweed plant response rating (pigweed; [3]): 50 | Plant response rating, Pigweed (pigweed; [4]): 45 | Plant response rating, Pigweed (pigweed; [5]): 65 | Plant response rating (scale of 0 to 100), Pigweed (pigweed; Preemergence, 250 g ai/ha): 80 | Plant response rating, Foxtail, Giant (foxtail, giant; [7]): 25 | Plant response rating, Foxtail, Giant (foxtail, giant; [8]): 65 | Plant response rating, Foxtail, Giant (foxtail, giant; [9]): 75 | Plant response rating, Foxtail, Giant (foxtail, giant; [10]): 85 | Foxtail, Giant plant response rating (foxtail, giant; [3]): 90 | Plant response rating, Foxtail, Giant (foxtail, giant; [4]): 95 | Plant response rating, Foxtail, Giant (foxtail, giant; [5]): 98 | Plant response rating (scale of 0 to 100), Foxtail, Giant (foxtail, giant; Preemergence, 250 g ai/ha): 98 | Plant response rating, Corn (corn; [7]): 0 | Plant response rating, Corn (corn; [8]): 0 | Plant response rating, Corn (corn; [9]): 0 | Plant response rating, Corn (corn; [10]): 0 | Corn plant response rating (corn; [3]): 0 | Plant response rating, Corn (corn; [4]): 0 | Plant response rating, Corn (corn; [5]): 20 | Plant response rating (scale of 0 to 100), Corn (corn; Preemergence, 250 g ai/ha): 65 | Plant response rating, Velvetleaf (velvetleaf; [7]): 25 | Plant response rating, Velvetleaf (velvetleaf; [8]): 0 | Plant response rating, Velvetleaf (velvetleaf; [9]): 5 | Plant response rating, Velvetleaf (velvetleaf; [10]): 25 | Velvetleaf plant response rating (velvetleaf; [3]): 0 | Plant response rating, Velvetleaf (velvetleaf; [4]): 20 | Plant response rating, Velvetleaf (velvetleaf; [5]): 35 | Plant response rating (scale of 0 to 100), Velvetleaf (velvetleaf; Preemergence, 250 g ai/ha): 40 | Plant response rating, Crabgrass, Large (crabgrass, large; [7]): 55 | Plant response rating, Crabgrass, Large (crabgrass, large; [8]): 70 | Plant response rating, Crabgrass, Large (crabgrass, large; [9]): 70 | Plant response rating, Crabgrass, Large (crabgrass, large; [10]): 75 | Crabgrass, Large plant response rating (crabgrass, large; [3]): 98 | Plant response rating, Crabgrass, Large (crabgrass, large; [4]): 100 | Plant response rating, Crabgrass, Large (crabgrass, large; [5]): 100 | Plant response rating (scale of 0 to 100), Crabgrass, Large (crabgrass, large; Preemergence, 250 g ai/ha): 100 | Plant response rating, Ducksalad (ducksalad; 62 g ai/ha, scale of 0 to 100 where 0 is no effect and 100 is complete control, 13 to 15 days): 100 | Plant response rating, Ducksalad (ducksalad; [11]): 100 | Plant response rating, Ducksalad (ducksalad; 250 g ai/ha, scale 0 to 100): 100 | Plant response rating, Ducksalad (ducksalad; 500 g ai/ha, scale 0 to 100): 100

O=C1NC[C@H](c2cccc(C(F)(F)F)c2)[C@H]1C(=O)Nc1cccc(F)c1F [Compound 206]
Plant response rating, Foxtail, Giant (giant foxtail; [6]): 90 | Plant response rating, Foxtail, Giant (giant foxtail; Postemergence, 125 g ai/ha, 0 to 100 scale, 0 is no effect, 100 is complete control): 90 | Foxtail, Giant plant response rating (0 to 100 scale, 0 is no effect, 100 is complete control) (giant foxtail; Postemergence, 500 g ai/ha): 90 | Plant response rating, Foxtail, Giant (giant foxtail; preemergence, 500 g ai/ha, 0 to 100 scale, 0 is no effect and 100 is complete control): 90 | Plant response rating, Pigweed (pigweed; [7]): 30 | Plant response rating, Pigweed (pigweed; [8]): 40 | Plant response rating, Pigweed (pigweed; [9]): 50 | Plant response rating, Pigweed (pigweed; [10]): 30 | Pigweed plant response rating (pigweed; [3]): 70 | Pigweed plant response rating (pigweed; [12]): 100 | Plant response rating, Pigweed (pigweed; [5]): 100 | Plant response rating (scale of 0 to 100), Pigweed (pigweed; Preemergence, 250 g ai/ha): 85 | Plant response rating, Foxtail, Giant (foxtail, giant; [7]): 0 | Plant response rating, Foxtail, Giant (foxtail, giant; [8]): 50 | Plant response rating, Foxtail, Giant (foxtail, giant; [9]): 50 | Plant response rating, Foxtail, Giant (foxtail, giant; [10]): 85 | Foxtail, Giant plant response rating (foxtail, giant; [3]): 90 | Foxtail, Giant plant response rating (foxtail, giant; [12]): 90 | Plant response rating, Foxtail, Giant (foxtail, giant; [5]): 95 | Plant response rating (scale of 0 to 100), Foxtail, Giant (foxtail, giant; Preemergence, 250 g ai/ha): 95 | Plant response rating, Corn (corn; [7]): 0 | Plant response rating, Corn (corn; [8]): 0 | Plant response rating, Corn (corn; [9]): 30 | Plant response rating, Corn (corn; [10]): 50 | Corn plant response rating (corn; [3]): 30 | Corn plant response rating (corn; [12]): 60 | Plant response rating, Corn (corn; [5]): 65 | Plant response rating (scale of 0 to 100), Corn (corn; Preemergence, 250 g ai/ha): 60 | Plant response rating, Velvetleaf (velvetleaf; [7]): 0 | Plant response rating, Velvetleaf (velvetleaf; [8]): 0 | Plant response rating, Velvetleaf (velvetleaf; [9]): 15 | Plant response rating, Velvetleaf (velvetleaf; [10]): 15 | Velvetleaf plant response rating (velvetleaf; [3]): 0 | Velvetleaf plant response rating (velvetleaf; [12]): 50 | Plant response rating, Velvetleaf (velvetleaf; [5]): 40 | Plant response rating (scale of 0 to 100), Velvetleaf (velvetleaf; Preemergence, 250 g ai/ha): 60 | Plant response rating, Crabgrass, Large (crabgrass, large; [7]): 45 | Plant response rating, Crabgrass, Large (crabgrass, large; [8]): 50 | Plant response rating, Crabgrass, Large (crabgrass, large; [9]): 70 | Plant response rating, Crabgrass, Large (crabgrass, large; [10]): 80 | Crabgrass, Large plant response rating (crabgrass, large; [3]): 90 | Crabgrass, Large plant response rating (crabgrass, large; [12]): 90 | Plant response rating, Crabgrass, Large (crabgrass, large; [5]): 95 | Plant response rating (scale of 0 to 100), Crabgrass, Large (crabgrass, large; Preemergence, 250 g ai/ha): 95 | Plant response rating, Ducksalad (ducksalad; [11]): 90 | Plant response rating, Ducksalad (ducksalad; 250 g ai/ha, scale of 0 to 100 where 0 is no effect and 100 is complete control, 13 to 15 days): 100 | Plant response rating, Ducksalad (ducksalad; 500 g ai/ha, scale 0 to 100): 100 | Plant response rating, Ducksalad (ducksalad; 1000 g ai/ha, scale 0 to 100): 100
